“Also recorded” adds a separate entry of the source.
Test system: scce-transgenic mice
Assay: Scratching behaviour (itch) in scce-transgenic mice for testing of antipruritic agents
Format: in vivo
Details: scce-transgenic mice 20-21 weeks; tube feeding, 30 μl of 1 mg/ml mixture (FIG. 8A), 90 μl 7 days later (FIG. 8B); versus sucrose control solution
Experimental: Scratching behavior of scce-transgenic (#1010) mice. Twenty one mice, (11 transgenes, 5 females; 10 wild type litter mates, 2 females) were observed every fifth day for 45 days, starting when the mice were 5-6 weeks of age. At each observation point mice were transferred to individual cages, and episodes of scratching with hind or front paws were counted during three 5-min periods with 2.5 min lapsing from the transfer to the cage to the first counting, and between counting periods. The results for the three observation periods were pooled and the number of episodes of scratching per min calculated. […]
Transgenic mice, 18-22 weeks of age, mean weight 24.2 g, were given subcutaneous injections of either 250 μg of the glucocorticoid triamcinolone acetonide in a total volume of 100 μl on day 0, and 100 μg triamcinolone acetonide in a total volume of 100 μl on days 7, 14 and 21, or 100 μl of physiological saline at the same time points. Episodes of scratching were counted in the morning and injections were given in the afternoon. […]
Transgenic mice 20-21 weeks of age, mean weight […], were given either loratidine in a total volume of 100 μl, or 100 μl of a control solution by means of tube feeding. Episodes of scratching were counted immediately before feeding (0 hours), and then at time points as indicated. […]

CCOC(=O)N1CCC(=C2c3ccc(Cl)cc3CCc3cccnc32)CC1 [loratidine]
effect on itch (frequency of scratching): no significant difference in frequency of scratching; also recorded: no statistically significant antipruritic effect; also recorded: no statistically significant differences in frequency of scratching

From US7019194B2, “SCCE modified transgenic mammals and their use as models of human disease” (priority 2001, dated 2006)
